The results in this text go back to ChEMBL document CHEMBL1153889, “Psammaplin A as a general activator of cell-based signaling assays via HDAC inhibition and studies on some bromotyrosine derivatives” (Bioorg Med Chem, 2009).

Test [1] has as its target Protein Wnt-3a (Mus musculus) (UniProt P27467). Briefly: Activation of mouse Wnt3a signaling expressed in HEK293 STF cells assessed as increase in transcriptional activity after 24 hrs by luciferase reporter gene-based lactate dehydrogenase assay. Format: cell-based. (In general: Reporter assays use an easily measured gene product as a stand-in for the process of interest.)

For test [2], the system named is HEK293. As to the kind of experiment: Activation of Neuropeptide S receptor I107 mutant expressed in HEK293 cells assessed as increase in transcriptional activity after 24 hrs by luciferase reporter gene-based lactate dehydrogenase assay. It counts as cell-based.

The structures appear in SMILES notation. Calls of active or inactive are those of the source. The calls are words filed in the database; no cut-off is given here.

Sequence of Protein Wnt-3a (Mus musculus) (P27467 whole entry): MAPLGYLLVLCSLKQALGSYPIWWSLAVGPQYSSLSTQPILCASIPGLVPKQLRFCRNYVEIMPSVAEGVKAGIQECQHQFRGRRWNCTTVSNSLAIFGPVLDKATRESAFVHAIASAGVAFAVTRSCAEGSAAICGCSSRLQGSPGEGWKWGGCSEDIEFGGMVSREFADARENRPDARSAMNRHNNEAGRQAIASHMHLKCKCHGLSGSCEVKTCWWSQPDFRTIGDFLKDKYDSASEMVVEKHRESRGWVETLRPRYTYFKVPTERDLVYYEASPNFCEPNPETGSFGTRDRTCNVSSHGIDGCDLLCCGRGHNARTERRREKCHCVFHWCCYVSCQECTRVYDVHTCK

Turning to `O=C(NCCSSCCNC(=O)/C(Cc1ccc(O)c(Br)c1)=N/O)/C(Cc1ccc(O)c(Br)c1)=N/O`, the outcome in test [1] and in test [2] was Active.

Consider `CC(/C=C/C(=O)NO)=C\[C@@H](C)C(=O)c1ccc(N(C)C)cc1`, for which, in test [1], the result was Active.

In the case of `Nc1ccccc1NC(=O)c1ccc(CNC(=O)OCc2cccnc2)cc1`, the outcome in test [1] was Active.

As for `O=C(CCCCCCC(=O)Nc1ccccc1)NO`, in test [1], the result was Active.
